One test relates to QGY-7703 cells. The test is described as follows: Cell proliferation assay (CCK-8), QGY-7703. It is filed as cell-based, human. How it is done: The human HCC cell lines QGY-7703, SMMC-7721 and HepG2 and the liver cell line QSG-7701 were supplied by the Cell Resource Center, Institute of Life Sciences, Chinese Academy of Medical Science. QGY-7703, SMMC-7721 and QSG-7701 cells were cultured in 1640 medium (Gibco), and HepG2 cells were cultured in DMEM medium (Gibco) at 37 °C in moist air supplemented with 5% CO2. All media were supplemented with 10% fetal bovine serum (FBS) and 100 Units/mL of penicillin/streptomycin.
The cell viability assay was performed as previously reported using a Cell Counting Kit-8 (CCK-8; Dojindo, Kumamoto, Japan)[33][34]. The relative cell viability was presented as % inhibition and calculated using the following formula: […]

Another test addresses T1, PKCμ (Homo sapiens, UniProt Q15139).
T1 construct: Endogenous cPKC (PKCα) and nPKC (PKCδ, PKCε and PKCμ) in HepG2 lysates were pulled down; endogenous in cells; host or cells: HepG2
T1 sequence (Q15139 1-912): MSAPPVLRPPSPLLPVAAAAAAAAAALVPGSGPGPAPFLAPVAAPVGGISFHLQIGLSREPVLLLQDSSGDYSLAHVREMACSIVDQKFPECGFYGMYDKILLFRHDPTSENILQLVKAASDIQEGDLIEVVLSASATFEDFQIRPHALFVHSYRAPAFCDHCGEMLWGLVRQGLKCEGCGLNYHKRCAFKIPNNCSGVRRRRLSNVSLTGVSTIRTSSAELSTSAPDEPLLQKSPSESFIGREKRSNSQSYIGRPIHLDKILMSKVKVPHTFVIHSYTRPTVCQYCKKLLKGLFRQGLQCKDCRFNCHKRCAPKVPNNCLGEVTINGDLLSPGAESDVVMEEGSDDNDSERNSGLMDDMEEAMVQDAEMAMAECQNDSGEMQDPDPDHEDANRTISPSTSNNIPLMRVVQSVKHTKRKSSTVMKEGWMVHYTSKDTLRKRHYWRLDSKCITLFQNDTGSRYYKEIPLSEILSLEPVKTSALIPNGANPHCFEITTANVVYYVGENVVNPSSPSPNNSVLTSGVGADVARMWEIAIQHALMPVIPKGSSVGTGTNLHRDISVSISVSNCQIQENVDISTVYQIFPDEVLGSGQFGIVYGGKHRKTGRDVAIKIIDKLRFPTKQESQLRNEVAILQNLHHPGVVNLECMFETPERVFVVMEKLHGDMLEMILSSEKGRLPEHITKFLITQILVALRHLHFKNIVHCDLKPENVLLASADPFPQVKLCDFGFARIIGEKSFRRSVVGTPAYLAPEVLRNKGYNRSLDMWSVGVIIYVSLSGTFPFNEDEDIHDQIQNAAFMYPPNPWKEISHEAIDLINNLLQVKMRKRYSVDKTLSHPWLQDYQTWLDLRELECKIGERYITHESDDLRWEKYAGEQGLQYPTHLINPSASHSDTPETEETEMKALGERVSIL
Kind of test: Cell-based pull-down assay, PKCμ. It is filed as binding. The following applies: HepG2 lysates. The protocol:
(§1) To identify whether ISJ and compound 7 target PKC in cells, we performed pull-down experiments using ISJ- and compound 7-coupled Sepharose beads with HepG2 cell lysates. Endogenous cPKC (PKCα) and nPKC (PKCδ, PKCε and PKCμ) in HepG2 lysates were pulled down by ISJ-coupled CNBr-activated Sepharose 4B beads (Fig. 5a).
(§2) The control beads were prepared by incubating the beads with DMSO. Proteins (500 μg) from lysed HepG2 cells were mixed with either the control beads, compound 7-coupled beads, or ISJ-coupled beads (100 μL) in reaction buffer [50 mM Tris (pH 7.5), 5 mM EDTA, 150 mM NaCl, 1 mM DTT, 0.01% NP-40, 2 μg/mL BSA, 1 mM PMSF, 1% protease inhibitor mixture]. After incubation with gentle rocking overnight at 4 °C, the beads were washed 5 times with washing buffer [50 mM Tris (pH 7.5), 5 mM EDTA, 150 mM NaCl, 1 mM DTT, 0.01% NP-40, 1 mM PMSF], and binding was visualized by western blotting.

Another test deals with T2, PKCε (Homo sapiens, UniProt Q02156).
T2 construct: Endogenous cPKC (PKCα) and nPKC (PKCδ, PKCε and PKCμ) in HepG2 lysates were pulled down; endogenous in cells; host or cells: HepG2
T2 sequence (Q02156 1-737): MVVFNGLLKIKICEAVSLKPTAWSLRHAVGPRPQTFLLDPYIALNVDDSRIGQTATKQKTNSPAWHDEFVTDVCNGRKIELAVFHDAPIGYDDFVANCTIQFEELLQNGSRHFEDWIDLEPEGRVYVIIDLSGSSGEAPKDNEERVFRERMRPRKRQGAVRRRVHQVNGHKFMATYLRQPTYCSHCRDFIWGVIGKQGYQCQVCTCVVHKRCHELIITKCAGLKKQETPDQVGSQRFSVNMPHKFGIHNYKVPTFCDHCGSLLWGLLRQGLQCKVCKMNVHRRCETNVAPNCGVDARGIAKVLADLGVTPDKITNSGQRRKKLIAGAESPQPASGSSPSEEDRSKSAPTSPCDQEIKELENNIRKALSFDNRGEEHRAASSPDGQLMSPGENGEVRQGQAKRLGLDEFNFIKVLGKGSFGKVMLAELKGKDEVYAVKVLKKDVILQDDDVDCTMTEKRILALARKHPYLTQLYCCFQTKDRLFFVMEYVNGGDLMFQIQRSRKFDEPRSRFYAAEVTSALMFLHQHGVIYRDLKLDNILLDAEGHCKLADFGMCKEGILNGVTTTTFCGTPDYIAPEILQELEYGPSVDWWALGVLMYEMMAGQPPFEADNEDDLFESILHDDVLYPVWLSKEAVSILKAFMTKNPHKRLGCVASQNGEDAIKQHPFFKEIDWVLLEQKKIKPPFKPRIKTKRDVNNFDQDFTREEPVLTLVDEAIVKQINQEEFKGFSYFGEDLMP
The test is described as follows: Cell-based pull-down assay, PKCε. The following applies: HepG2 lysates. It is filed as binding. How it is done:
as §1, §2

The subject of test [1] is methicillin-resistant Staphylococcus aureus (MRSA). On the set-up: method as in PMID 22942699. Conditions: cited from earlier work.
The test system of another test is HepG2 cells. Kind of test: Wound healing (migration) assay. It is filed as cell-based, human. The following applies: 10 μM, 24 h. The protocol: Cell migration and invasion potencies were studied using wound healing and Matrigel invasion assays. The wound healing assay was performed by scratching the cell surface with a 10 μL pipette tip. Then, the cells were treated with compound 7 and ISJ (10 μM) and incubated for 24 h before being photographed under a microscope (DMI3000 B, Leica). Wound closure was evaluated using ImageJ software. Invasion through a Matrigel-coated filter was measured in transwell chambers (Corning Costa) as described previously, with minor modifications. Briefly, HepG2 Cells (2 × 10^5/well) were suspended in serum-free medium and added to the upper chamber of the Matrigel plate. FBS (10%) was used as the chemoattractant in the lower chamber. After incubation for 24 h, the non-invading cells were removed from the upper surface of the insert membrane with a cotton swab. The invading cells were fixed with methanol and stained with Giemsa (Sigma). Cells in five randomly selected fields were photographed, and the numbers of cells that crossed the membrane were counted.

As to Isojacareubin [ISJ], in the test on QGY-7703 cells (50 μM), the “Inhibitory Ratio (%) QGY-7703” value turned out to be 83.69%. Also, in the test with QGY-7703 cells (mean ± SD, at least three independent experiments), the IC50 (as a rule, the midpoint of a concentration-inhibition curve) stood at 4.65 ± 0.32 µM. The “pull-down of endogenous PKCμ by compound-coupled Sepharose 4B beads” value on PKCμ was “pulled down”. Besides, the “pull-down of endogenous PKCε by compound-coupled Sepharose 4B beads” value at PKCε was “pulled down”. In addition, in test [1], the “antibacterial activity against MRSA” value is “potent antibacterial compound”. In addition, the “decrease of HepG2 cell migration compared to control” value in the test on HepG2 cells was 77.8%.

The record behind these values is article PMC4526861, “Inhibition of protein kinase C by isojacareubin suppresses hepatocellular carcinoma metastasis and induces apoptosis in vitro and in vivo” (Scientific Reports, 2015).
